d = 2'-deoxy (DNA); m = 2'-O-methyl
Key:
[1] = biological target: T1, Endonuclease I (Escherichia coli, UniProt P25736); assay: Probe sensitivity to Endonuclease I; type: biochemical
T1 sequence (P25736 23-235): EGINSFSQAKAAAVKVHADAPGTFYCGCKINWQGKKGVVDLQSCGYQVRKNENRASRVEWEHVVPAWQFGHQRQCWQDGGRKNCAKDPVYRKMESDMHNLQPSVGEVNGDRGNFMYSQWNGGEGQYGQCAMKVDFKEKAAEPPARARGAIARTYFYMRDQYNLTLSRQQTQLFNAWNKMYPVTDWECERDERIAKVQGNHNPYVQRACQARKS

[2] = tested on: nuclease of S. pyogenes; assay: Probe sensitivity to S. pyogenes nuclease; type: biochemical
[3] = tested on: E. coli (ATCC 25922); assay: E. coli detection on fluorogenic agar in 96-well plates; type: cell-based, Escherichia coli; details: 0.5 μM probe in TSA-based media, 96-well plate, 37° C.; vs S. aureus and S. pyogenes
Method: Tryptic Soy Agar (BD Cat. #236950) was autoclaved according to the manufacturer's instructions and cooled down to 50-60° C. Then, pre-sterilized components, including Tris-HCl (pH 8.0) (adjusted to 50 mM with the following stock solution: Fisher Scientific Cat. #BP1758-100), MgCl2 (adjusted to 20 mM with the following stock solution: Invitrogen Cat. #AM9530G), and Triton® X-100 (adjusted to 1% with the following stock solution: Fisher Scientific Cat. #50-751-7090). 0.5 μM Self-Hyb ATTO was also included where indicated. […]
(§1) E. coli (ATCC 25922) cultures were grown in Tryptic Soy Broth (BD Cat. #211825) overnight at 37° C. with shaking at 300-400 rpm. […] Plates were incubated at 37° C. and imaged using an IO-Rodeo fluorescent imager (IO-Rodeo, Large, Blue LED) and an iPhone 8 camera, and fluorescence was also measured concurrently with a Synergy H1 microplate reader (BioTek).
(§2) Two fluorescence measurement formats were used to detect the growth of target bacterial species on agar growth media. […] The fluorescence of the 96-well plates was also measured with a Bio-Tek fluorescence plate-reader using fluorescence filters tailored for green fluorescence, providing quantitative data.

[4] = tested on: S. pyogenes (ATCC 12344); assay: S. pyogenes detection on selective fluorogenic agar in 96-well plates; type: cell-based, Streptococcus pyogenes; details: 0.5 μM probe, 96-well plate, in the presence of colistin (2 μg/ml), 37° C.
Method: Tryptic Soy Agar (BD Cat. #236950) was autoclaved according to the manufacturer's instructions and cooled down to 50-60° C. Then, pre-sterilized components, including Tris-HCl (pH 8.0) (adjusted to 50 mM with the following stock solution: Fisher Scientific Cat. #BP1758-100) and MgCl2 (adjusted to 20 mM with the following stock solution: Invitrogen Cat. #AM9530G) were added. 0.5 μM Self-Hyb ATTO and 2 μg/mL Colistin (Alfa Aesar Cat. #AAJ67415XF) were also included where indicated. 90 μL of the agar mixtures were pipetted into the wells of clear-bottom 96-well plates (Thermo Scientific, nunc Cat. #265301) and allowed to solidify. […]
as §1, with “S. pyogenes (ATCC® 12344™)” for “E. coli (ATCC 25922)”, “with” for “using”
as §2

[5] = tested on: S. pyogenes (ATCC 12344); assay: S. pyogenes detection on probe-embedded agar plates; type: cell-based, Streptococcus pyogenes; details: agar plates with 0.5 μM probe, streaked with 10,000 cells, 37° C.
Method: Tryptic Soy Agar (BD Cat. #236950) was autoclaved according to the manufacturer's instructions and cooled down to 50-60 degrees C. Then, pre-sterilized components including Tris-HCl (pH 8.0) (adjusted to 50 mM with the following stock solution: Fisher Scientific Cat. #BP1758-100) and MgCl2 (adjusted to 20 mM with the following stock solution: Invitrogen Cat. #AM9530G) were added and the resulting mixture was poured into 60 mm Petri dishes (Corning Cat. #430589). 0.5 μM Self-Hyb ATTO and 2 μg/mL Colistin (Alfa Aesar Cat. #AAJ67415XF) were also included where indicated. The agar mixtures were allowed to solidify. Then the Petri dishes were sealed with parafilm (Bemis Cat. #999) and stored at 4° C., protected from light.
(§3) S. pyogenes (ATCC® 12344) cultures were grown in Tryptic Soy Broth (BD Cat. #211825) overnight at 37° C. with shaking at 300-400 rpm. Dilutions to […] were made and streaked on agar Petri dishes with 1 μL calibrated inoculation loops (Fisher Scientific, Fisherbrand Cat. #22363601). […]
as §2

[6] = biological target: micrococcal nuclease of S. aureus (Staphylococcus aureus, UniProt P00644); assay: Probe sensitivity to micrococcal nuclease; type: biochemical
[7] = tested on: E. coli (ATCC 25922); assay: Specificity control on probe-embedded agar plates: E. coli; type: cell-based, Escherichia coli; details: 8 hours after plating
Method: (§4) Tryptic Soy Agar (BD Cat. #236950) was autoclaved according to the manufacturer's instructions and cooled down to 50-60° C. Then, pre-sterilized components, including Tris-HCl (pH 9.0) (adjusted to 50 mM using the following stock solution: Rockland Cat. #MB028-1000) and CaCl2) (adjusted to 15 mM using the following stock solution: Sigma-Aldrich Cat. #21115-100ML) were added and the resulting mixture was poured into 60 mm Petri dishes (Corning Cat. #430589). 1 μM or 2 μM AttoPoly T 4mer (IDT, custom order) and 4 μg/mL Cefoxitin (Alfa Aesar Cat. #AAJ6689103) were also included where indicated. The agar mixtures were allowed to solidify, then the Petri dishes were sealed with parafilm (Bemis Cat. #999) and stored at 4° C., protected from light.
(§5) Two fluorescence measurement formats were used to detect the growth of target bacterial species on agar growth media. Agar media poured in 60 mm dishes or distributed to the wells of 96-well clear-bottomed plates were placed on an LED transilluminator (IORodeo) that emits blue light. A light filter was placed over the plates or dishes to block the LED-emitted light, but the filter still allows green light to pass, which is captured with an iPhone camera. […] The fluorescence of the 96-well plates was also measured with a Bio-Tek fluorescence plate-reader using fluorescence filters tailored for green fluorescence, providing quantitative data.

[8] = tested on: MRSA (ATCC BAA1707); assay: MRSA vs MSSA detection on probe-embedded agar with/without cefoxitin, 96-well plates; type: cell-based, Staphylococcus aureus; details: 1 μM probe in TSA-based media with/without cefoxitin, 37° C.
Method: Tryptic Soy Agar (BD Cat. #236950) was autoclaved according to the manufacturer's instructions and cooled down to 50-60° C. Then, pre-sterilized additives, including Tris*HCl (pH 9.0) (adjusted to 50 mM with the following stock solution: Rockland Cat. #MB028-1000) and CaCl2) (adjusted to 15 mM with the following stock solution: Sigma-Aldrich Cat. #21115-100ML) were added. 1 μM or 2 μM AttoPoly T 4mer and 4 μg/mL Cefoxitin (Alfa Aesar Cat. #AAJ6689103) were also included where indicated. 90 μL of the agar mixtures were pipetted into the wells of clear-bottom 96-well plates (Thermo Scientific, nunc Cat. #265301) and allowed to solidify. […]
as §1, with “S. aureus” for “E. coli”, “29213)” for “25922)”, “also concurrently” for “also”, “measured” for “measured concurrently”
as §2

[9] = tested on: S. lugdunensis (ATCC 700328); assay: Specificity control on probe-embedded agar plates: S. lugdunensis; type: cell-based, Staphylococcus lugdunensis; details: 8 hours after plating
Method: as §4, §5

[10] = tested on: S. aureus (ATCC 29213); assay: S. aureus detection on probe-embedded agar Petri dishes (fluorescence imaging); type: cell-based, Staphylococcus aureus; details: agar plates streaked with <1000 cells, 37° C., fluorescence plate imaging (SASelect: chromogenic agar)
Method: as §4
as §3, with “S. aureus (ATCC 29213) cultures were” for “S. pyogenes (ATCC® 12344) cultures were”, “made and these were streaked on” for “made and streaked on”
as §2

[11] = tested on: most nucleases; assay: Probe resistance to nucleases in general; type: biochemical

CTACGTAG (DNA, backbone not given here; further chemistry not fully specified) [DNA-SH]
sensitivity to Endonuclease I [1]: sensitive

5′-ATTO488-fC-fU-fA-fC-fG-fU-fA-fG-ZEN-RQSp-3′ (CUACGUAG; 2'-fluoro; ATTO488, ZEN, RQSp quencher; (1)..(8) Each base pair in this sequence is a 2′-fluoro modified nucleotide. Please see Table 1 of the Specification.) [Self-Hyb ATTO]
sensitivity to a nuclease of S. pyogenes [2]: sensitive
time to specific detection of E. coli [3]: 8 h
sensitivity to Endonuclease I [1]: sensitive
time to detection of low concentrations of S. pyogenes [4]: ≤ 10 h
time to detection of S. pyogenes [5]: 19 h

mUTTmUmUmUmUmUmUmUmU (UTTUUUUUUUU; sugars from the 5' end m1 d2 m8, backbone not given here) [P2&3 TT Probe]
sensitivity to micrococcal nuclease of S. aureus [6]: sensitive

5′-ATTO488-TTTT-ZEN-RQSp-3′ [AttoPoly T 4mer]
fluorescence produced by E. coli on probe-embedded agar [7]: did not produce fluorescence
time at which MRSA can be distinguished from MSSA [8]: 8 to 10 h
fluorescence produced by S. lugdunensis on probe-embedded agar [9]: did not produce fluorescence
time to detection of S. aureus colonies after plating [10]: ≤ 8 h

fUfUfUfAfUfGfCfAfUfAfAfA (UUUAUGCAUAAA; all 2'-fluoro, backbone not given here; thiol or fluorophore label) [SH-Fl 5UUU]
sensitivity to a nuclease of S. pyogenes [2]: sensitive
sensitivity to Endonuclease I [1]: sensitive

mCmUmAmCmGmUmAmG (CUACGUAG; all 2'-O-methyl, backbone not given here; thiol modification) [2′-OMe SH]
resistance to nucleases [11]: resistant to most nucleases
